pEC50: −log10 of the molar value. Where two headings read alike, the source gives them in different places.
Experiments:
HCV GT1b replicons = experiment: Anti-HCV replicon activity, HCV GT1b stable transfection replicon cell line (luciferase); type: cell-based, hepatitis C virus (HCV) genotype (GT) 1b
Description: (§1) A hepatitis C virus (HCV) genotype (GT) 1b stable transfection replicon cell line system was used to determine the inhibitory activity of the compounds to the HCV GT1b replicons. In this experiment, the compound 06a (GS-7977) was used as a control compound to monitor the experimental quality.
(§2) [drawing 4] 2. Compound dilution: 20 mM mother liquor was prepared by using 100% DMSO, and the compound DMSO mother liquor was diluted and added to a 96-well experiment plate. The final concentration of the DMSO was 0.5%. In in-vitro anti-HCV activity experiments and cytotoxicity experiments, all compounds had the initial concentration of 20 microns, and were diluted by 5 times of dilution. The final concentration of the DMSO of 6 concentrations were 0.5%. 3. Cell treatment: HCV-1b replicon sub-cells were added to the above 96-well cell plate (8,000 cells/well), and then placed into an incubator of 37 DEG C. and 5% CO2 for culturing for 3 days. 4. Cell activity detection: a cell growth fluorescent titration detection reagent was added to each well; after the cells were cultured for 1 hour in the incubator of 37 DEG C. and 5% CO2, a spectrophotometer detection system Envision was used to detect a Fluorescence signal value. The original data, i.e, relative fluorescence units (RFUs), was used for the calculation of the cell toxicity of the compounds. 5. Anti-HCV replicon activity detection: a luciferase light-emitting substrate bright-GLO was added to each well, and a chemiluminescence detection system Envision was used for detecting a Luminescence signal value in 5 minutes. The original data, i.e., relative light units (RLUs), was used for the calculation of the inhibitory activity of the compounds. 6. Data processing: the RFUs obtained in step 1.3 were processed into a cell activity percentage by using the following formula: […]
The RLUs obtained in step 1.4 were processed into a inhibition percentage by using the following formula:
[formula] *CPD: signal values of compound wells HPE (high percent effect): 100% effective action control well signal value, with only DMEM culture solution in the wells; The ZPE (zero percent effect): noneffective control well signal value, with 0.5% DMSO to replace the compound.
(§3) The cell activity percentage and the inhibition percentage were respectively imported into GraphPad Prism software for data processing to obtain curves corresponding to the compounds and their values of cytotoxicity (CC50) and inhibitory activity (ECD50) to the HCV replicons.

Human plasma stability = type: in vitro ADME; conditions: test concentration 2 μM
Description: 3. Human Plasma Stability (Test Concentration: 2 μM), See Table 4.

[1] = Simulated gastric liquid stability; type: in vitro ADME
[2] = Simulated intestinal fluid stability; type: in vitro ADME; conditions: test concentration 10 μM
Description: 2. Simulated Intestinal Fluid Stability (Test Concentration: 10 μM), See Table 3: […]

Human liver S9 stability = type: in vitro ADME; conditions: human liver S9, test concentration 1 μM
Description: 4. Human Liver S9 Stability Parameters (Test Concentration: 1 μM), See Table 5.

[3] = tested on: HCV-1b replicon sub-cells; experiment: Cytotoxicity in HCV-1b replicon cells (cell growth fluorescent titration); type: cell-based; conditions: HCV GT1b replicon cells, 3 days
Description: as §1, §2, §3

[4] = as above; type: cell-based; conditions: HCV genotype 1b stably transfected replicon cells, HCV GT1b replicon cells
Description: as §1, §2, §3

[5] = Hepatitis C virus, GT1B, 72 h, read-out: EC50 anti-HCV replicon activity, HCV GT1b replicons, 3 days, maximum test concentration 20 μM
[6] = read-out: EC50 anti-HCV replicon activity, HCV GT1b replicons, 3 days, maximum test concentration 20 μM

SMILES | % 0 min residual percentage (Human plasma stability) [%] | % 10 min residual percentage (Human plasma stability) [%] | % 30 min residual percentage (Human plasma stability) [%] | % 60 min residual percentage (Human plasma stability) [%] | % 120 min residual percentage (Human plasma stability) [%] | % 0 h residual percentage [2] [%] | % 1 h residual percentage [2] [%] | % 2 h residual percentage [2] [%] | % 6 h residual percentage [2] [%] | % 24 h residual percentage [2] [%] | CLlint(s9) (Human liver S9 stability) [µL/min/mg] | Remaining % (NCF = 1 h) (Human liver S9 stability) [%] | Remaining % (T = 1 h) (Human liver S9 stability) [%] | CLlint(s9) (Human liver S9 stability; scaled per kg) [mL/h/kg] | pEC50 (HCV GT1b replicons; [5]) | half-life at 1 μM (Human liver S9 stability) [h] | CC50 at 3 days [4] [µM] | also measured
CC(C)OC(=O)C(C)NP(=O)(OCc1ccccc1)OCC1OC(n2ccc(=O)[nH]c2=O)C(C)(F)C1O (mixture of isomers) [Compound 01] | 100 | 98.9 | 81.7 | 80.9 | 74.9 | 100 | 1.69 | 0.08 | 0.00 | 0.00 | 7.2 | 67.4 | 56.2 | 1.51 | – | – | – | pEC50 (HCV GT1b replicons; HCV GT1b replicons, 3 days, maximum test concentration 20 μM, read-out: EC50 anti-HCV replicon activity): 5.21; % 0 h residual percentage ([1]; test concentration 10 μM): 100%; % 1 h residual percentage ([1]; test concentration 10 μM): 96.81%; % 2 h residual percentage ([1]; test concentration 10 μM): 105.99%; % 6 h residual percentage ([1]; test concentration 10 μM): 100.76%; % 24 h residual percentage ([1]; test concentration 10 μM): 71.32%; T1/2 (Human liver S9 stability): 1.61 h; CC50 [3]: > 20 µM
Cc1ccccc1COP(=O)(N[C@@H](C)C(=O)OC(C)C)OC[C@H]1O[C@@H](n2ccc(=O)[nH]c2=O)[C@](C)(F)[C@@H]1O (single isomer, unassigned) [Unresolved enantiomer 02 of patent compounds in 2013] | 100 | 73.3 | 69.5 | 62.8 | 58.8 | 100 | 0.63 | 0.08 | 0.00 | 0.00 | 72.6 | 64.7 | 1.1 | 15.34 | 4.70 to 5.00 | 0.158 | > 20 | pEC50 (HCV GT1b replicons; [6]): 4.75; % 0 h residual percentage ([1]; test concentration 10 μM): 100%; % 1 h residual percentage ([1]; test concentration 10 μM): 82.70%; % 2 h residual percentage ([1]; test concentration 10 μM): 82.45%; % 6 h residual percentage ([1]; test concentration 10 μM): 74.80%; % 24 h residual percentage ([1]; test concentration 10 μM): 41.56%
CCOc1ccc2ccc(=O)oc2c1 [7-Ethoxycumarin] | – | – | – | – | – | – | – | – | – | – | 194.2 | 103.3 | 0.0 | 41.01 | – | 0.06 | – | –
O=c1ccc2ccc(O)cc2o1 [7-Hydroxycoumarin] | – | – | – | – | – | – | – | – | – | – | 7.2 | 67.4 | 56.2 | 1.51 | – | 1.61 | – | –
O=C(O)CCCc1ccc(N(CCCl)CCCl)cc1 [Chlorambucil] | – | – | – | – | – | 100 | 43.83 | 3.91 | 0.00 | 0.00 | – | – | – | – | – | – | – | –
COc1ccccc1COP(=O)(N[C@@H](C)C(=O)OC(C)C)OC[C@H]1O[C@@H](n2ccc(=O)[nH]c2=O)[C@](C)(F)[C@@H]1O (stereo partly shown) [Compound 03] | – | – | – | – | – | – | – | – | – | – | – | – | – | – | < 4.70 | – | > 20 | –
Cc1ccc(COP(=O)(N[C@@H](C)C(=O)OC(C)C)OC[C@H]2O[C@@H](n3ccc(=O)[nH]c3=O)[C@](C)(F)[C@@H]2O)cc1 (stereo partly shown) [Compound 04] | – | – | – | – | – | – | – | – | – | – | – | – | – | – | 4.70 to 5.00 | – | > 20 | pEC50 (HCV GT1b replicons; [6]): 4.82
COc1ccc(COP(=O)(N[C@@H](C)C(=O)OC(C)C)OC[C@H]2O[C@@H](n3ccc(=O)[nH]c3=O)[C@](C)(F)[C@@H]2O)cc1 (stereo partly shown) [Compound 05] | – | – | – | – | – | – | – | – | – | – | – | – | – | – | < 4.70 | – | > 20 | –
COc1ccc2[nH]c([S+]([O-])Cc3ncc(C)c(OC)c3C)nc2c1 (stereo not shown) [Omeprazole] | – | – | – | – | – | – | – | – | – | – | – | – | – | – | – | – | – | % 0 h residual percentage ([1]; 20 μM): 100%; % 1 h residual percentage ([1]; 20 μM): 5.24%; % 2 h residual percentage ([1]; 20 μM): 2.76%; % 6 h residual percentage ([1]; 20 μM): 0.20%; % 24 h residual percentage ([1]; 20 μM): 0.00%
CC(C)OC(=O)[C@H](C)NP(=O)(OC[C@H]1O[C@@H](n2ccc(=O)[nH]c2=O)[C@](C)(F)[C@@H]1O)Oc1ccccc1 (stereo partly shown) [Patent compound 06 in 2008] | 100 | 78.8 | 70.9 | 72.0 | 65.3 | 100 | 0.00 | 0.00 | 0.00 | 0.00 | 6.0 | 64.0 | 58.6 | 1.27 | > 5.00 | 1.92 | > 20 | pEC50 (HCV GT1b replicons; [6]): 5.01; % 0 h residual percentage ([1]; test concentration 10 μM): 100%; % 1 h residual percentage ([1]; test concentration 10 μM): 95.19%; % 2 h residual percentage ([1]; test concentration 10 μM): 98.47%; % 6 h residual percentage ([1]; test concentration 10 μM): 84.08%; % 24 h residual percentage ([1]; test concentration 10 μM): 49.36%
CC(C)[N+](C)(CCOC(=O)C1c2ccccc2Oc2ccccc21)C(C)C [Propantheline] | 100 | 53.3 | 14.3 | 2.2 | 0.0 | – | – | – | – | – | – | – | – | – | – | – | – | –

Reference: patent US10745434B2, “Uridine phosphoramide prodrug, preparation method therefor, and medicinal uses thereof” (priority 2016, dated 2020)
